Results reported in PubChem BioAssay (NCI).
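Where inhibition never reached the appropriate level, the endpoint shown equals the highest concentration tested. Otherwise, values were interpolated linearly from a five-concentration, 48-hour dose response in 96-well plates. GI50: concentration for 50% inhibition of growth. The concentration for full growth arrest is given as TGI.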

Assays:
Assay in all cases: growth of human tumour cells (NCI), 48 h
[1] = test system: HCT-116 colon
[2] = test system: OVCAR-4 ovarian
[3] = test system: MOLT-4 leukemia
[4] = test system: RPMI-8226 leukemia
[5] = test system: SF-295 CNS
[6] = test system: CCRF-CEM leukemia
[7] = test system: EKVX NSCLC
[8] = test system: UACC-62 melanoma
[9] = test system: K-562 leukemia
[10] = test system: MALME-3M melanoma
[11] = test system: UO-31 renal
[12] = test system: SW-620 colon
[13] = test system: HOP-62 NSCLC
[14] = test system: KM12 colon
[15] = test system: NCI-H522 lung
[16] = test system: SK-MEL-2 melanoma
[17] = test system: SNB-19 CNS
[18] = test system: TK-10 renal
[19] = test system: DU-145 prostate
[20] = test system: IGROV1 ovarian
[21] = test system: HOP-92 NSCLC
[22] = test system: NCI/ADR-RES ovarian
[23] = test system: SK-OV-3 ovarian
[24] = test system: SK-MEL-5 melanoma
[25] = test system: SN12C renal
[26] = test system: OVCAR-3 ovarian
[27] = test system: NCI-H23 lung
[28] = test system: HS 578T breast
[29] = test system: M14 melanoma
[30] = test system: NCI-H460 lung
[31] = test system: ACHN renal
[32] = test system: BT-549 breast
[33] = test system: MCF7 breast
[34] = test system: SK-MEL-28 melanoma
[35] = test system: U251 CNS
[36] = test system: PC-3 prostate
[37] = test system: HT29 colon
[38] = test system: OVCAR-5 ovarian
[39] = test system: LOX IMVI melanoma
[40] = test system: HCC-2998 colon
[41] = test system: A549 NSCLC
[42] = test system: SF-268 CNS
[43] = test system: RXF 393 renal
[44] = test system: A498 renal
[45] = test system: 786-0 renal
[46] = test system: MDA-MB-435
[47] = test system: T-47D breast
[48] = test system: OVCAR-8 ovarian
[49] = test system: CAKI-1 renal
[50] = test system: MDA-MB-231 breast
[51] = test system: COLO 205 colon
[52] = test system: SF-539 CNS
[53] = test system: UACC-257 melanoma
[54] = test system: HCT-15 colon
[55] = test system: NCI-H226 lung
[56] = test system: HL-60(TB) leukemia
[57] = test system: MDA-N

COc1ccccc1-c1cc(=O)c2c(C)cc(C)nc2[nH]1
GI50 [1]: 74.5 µM | TGI [1]: > 100 µM | TGI [2]: > 100 µM | TGI [3]: > 100 µM | TGI [4]: > 100 µM | GI50 [5]: 53.1 µM | TGI [5]: > 100 µM | TGI [6]: > 100 µM | TGI [7]: > 100 µM | TGI [8]: > 100 µM | TGI [9]: > 100 µM | TGI [10]: > 100 µM | TGI [11]: > 100 µM | TGI [12]: > 100 µM | TGI [13]: > 100 µM | TGI [14]: > 100 µM | TGI [15]: > 100 µM | TGI [16]: > 100 µM | TGI [17]: > 100 µM | TGI [18]: > 100 µM | TGI [19]: > 100 µM | TGI [20]: > 100 µM | TGI [21]: 94.4 µM | TGI [22]: > 100 µM | TGI [23]: > 100 µM | GI50 [24]: 33.7 µM | TGI [24]: > 100 µM | TGI [25]: > 100 µM | GI50 [26]: 64.2 µM | TGI [26]: > 100 µM | TGI [27]: > 100 µM | TGI [28]: > 100 µM | TGI [29]: > 100 µM | GI50 [30]: 70.1 µM | TGI [30]: > 100 µM | TGI [31]: > 100 µM | TGI [32]: > 100 µM | TGI [33]: > 100 µM | TGI [34]: > 100 µM | GI50 [35]: > 100 µM | TGI [35]: > 100 µM | GI50 [36]: 48.3 µM | TGI [36]: > 100 µM | TGI [37]: > 100 µM | TGI [38]: > 100 µM | TGI [39]: > 100 µM | TGI [40]: > 100 µM | TGI [41]: > 100 µM | TGI [42]: > 100 µM | TGI [43]: > 100 µM | TGI [44]: > 100 µM | GI50 [45]: > 100 µM | TGI [45]: > 100 µM | GI50 [46]: 32.1 µM | TGI [46]: > 100 µM | TGI [47]: > 100 µM | TGI [48]: > 100 µM | TGI [49]: > 100 µM | TGI [50]: > 100 µM | TGI [51]: > 100 µM | TGI [52]: > 100 µM | TGI [53]: > 100 µM | TGI [54]: > 100 µM | TGI [55]: > 100 µM | GI50 [56]: 30.4 µM | TGI [56]: > 100 µM | GI50 [57]: 33.2 µM | TGI [57]: > 100 µM
